Reference: patent publication US9840522B2, “Multi-modal bioprobe for bladder cancer imaging and photodynamic therapy” (Hong Kong Baptist University, priority 2014, dated 2017)

System: xenograft tumor (T24 bladder cancer cells)
Experiment: In vivo magnetic resonance imaging after tail vein injection
Design: species or system mice
Details: MRI immediately
Description: After tail vein injection of Gd-3-R1 and Gd-DOTA into the mice, MRI experiment is conducted immediately.

SMILES: O=C([O-])CN1CCN(CC(=O)[O-])CCN(CC(=O)O)CCN(CC(=O)[O-])CC1.[Gd+3] [Gd-DOTA]
- MRI contrast effect on xenograft tumor: enhances the whole body signal without selectivity toward the tumor
